The values below come from US20220016251A1, “LYMPHATIC MEDIATED TRANSPORT-BASED TRIGLYCERIDE PRODRUG, AND PREPARATION METHOD THEREFOR” (SHENYANG PHARMACEUTICAL UNIVERSITY, priority 2019, published 2022).

In brackets after ≈: the same amount, converted by molar mass. Read-outs that look alike come from different tables or passages of the source.

The conditions of data set [1]: mouse, in vivo.
Excerpt: For 5 consecutive days, normal Balb/c mice are orally administered with the docetaxel-triglyceride prodrug emulsion synthesized in Example 4, and docetaxel solution, and intravenously injected with a docetaxel solution, and a normal saline group is used as control. The gastrointestinal toxicity is then investigated.
The nature of data set [2]: In vivo intestinal perfusion in rats. The text has this:
The intestinal permeability of a docetaxel-triglyceride prodrug is investigated by in vivo intestinal perfusion in rats. […] In order to investigate the effect of intestinal pancreatic lipase digestion on the absorption of the prodrug, a pancreatic lipase inhibitor orlistat is administrated half an hour in advance.

The next data set is described as follows: in vivo. On the procedure:
Taking SD rats as a model, a docetaxel-triglyceride prodrug emulsion and a docetaxel solution are orally administered; a plasma concentration of a parent drug is measured; and a drug-time curve is drawn and corresponding pharmacokinetic parameters are calculated respectively based on the measured concentration (Table 2). In order to calculate the absolute bioavailability, a docetaxel solution is administered intravenously, and the content of docetaxel in the plasma is measured.
In addition, in order to investigate whether the docetaxel-triglyceride prodrug is transported through the lymphatics, one hour before oral administration of the DTX-S-S-TG and the docetaxel solution, […] is administered intraperitoneally to inhibit the release of chylomicrons. The effect of lymphatic transport on the absorption of the prodrug is investigated.

The next data set deals with 4T1 tumor. The data set is classed as in vivo. The note with it: oral, 4T1 tumor-bearing Balb/c mice. The text has this: It reminds us that a good pharmacodynamic result not only requires a significant pharmacokinetic result, but also that a specific release at a tumor site is very important.
The test system of a further data set is KB cells. Description: cells. The data set is classed as cell-based. Particulars: Homo sapiens. The text has this: (§1) In order to investigate the tumor reduction-sensitive release of DTX-S-S-TG, 4T1 cells and KB cells are used as models to investigate the cytotoxicity of DTX-5C-TG, a DTX-S-S-TG emulsion and a docetaxel solution. […] Due to a reduction-sensitive dithio linking bridge, DTX-S-S-TG has higher drug release efficiency than DTX-5C-TG, which is linked by insensitive ester bonds. As a result, the cytotoxicity of DTX-S-S-TG is stronger than that of DTX-5C-TG. Meanwhile, due to the slow release of a sensitive prodrug, DTX-S-S-TG has lower cytotoxicity than the docetaxel solution.

For the next data set, the system named is 4T1 cells. Description: cells. The data set is classed as cell-based. Particulars: Mus musculus.
Excerpt: as §1

Another data set concerns pancreatic lipase. Description: Digestion in bile-pancreatic juice simulated intestinal juice. It is filed as in vitro ADME. Particulars: 37° C. The method, then: (§2) Emulsions prepared in Example 5 are incubated in simulated gastric juice, bile-pancreatic juice simulated intestinal juice, and lipoprotein lipase-containing plasma at 37° C., respectively; and samples are taken at predetermined time points to investigate the physical stability of the prodrug emulsion and the chemical stability of the prodrug in different media.

Data set [3] can be described thus: Stability in lipoprotein lipase-containing plasma. The data set is classed as in vitro ADME. Particulars: plasma added with lipoprotein lipase, after continuous incubation. On the procedure:
as §2

The AUC(0-t) is the area under the concentration-time curve up to a stated or last time point. Lower therefore signals low exposure. What is called Cmax is the maximum level reached in the sampled fluid or tissue. In general, Tmax refers to the time from dosing to the highest level. What is called half-life is the time needed for the level to fall by half in the phase considered. Read a low half-life as fast loss. As a reminder, the IC50 is the concentration needed to halve the response being measured. In the case of `CC(=O)O[C@@]12CO[C@@H]1C[C@H](O)[C@@]1(C)C(=O)[C@H](O)C3=C(C)[C@@H](OC(=O)[C@H](O)[C@@H](NC(=O)OC(C)(C)C)c4ccccc4)C[C@@](O)([C@@H](OC(=O)c4ccccc4)[C@H]21)C3(C)C` [DTX Solution, docetaxel], the “gastrointestinal toxicity (injury to intestinal segments)” value in data set [1] (iv) is listed as “injury to respective intestinal segments”. Moreover, the “gastrointestinal toxicity (injury to intestinal segments)” value in data set [1] (po) is listed as “slight injury to the jejunum”. In addition, the “effect of pancreatic lipase inhibitor orlistat on absorption” value in data set [2] (rat, in vivo) was “no significant effect”. The same compound returned a Fabs in the data set “in vivo” (SD, rat, in vivo) of 9.4%. Besides, in “in vivo” (SD, rat, in vivo, po), the exposure AUC(0-t) amounted to 168 ± 125 ng·h/mL, the Cmax was determined as 21 ± 6.8 ng/mL, the Frel is listed as 100% and the Tmax amounted to 0.4 ± 0.5 h. In the data set “in vivo” (SD, rat, in vivo, po), this compound showed a half-life of 11.8 ± 8.4 h. For the same compound, the “effect of cyclophosphamide (lymphatic suppression) on oral absorption / AUC” value in “in vivo” (rat, in vivo) is “no significant difference in AUC”. Also, the anti-tumor effect entry in the data set with 4T1 tumor is “almost no anti-tumor effect”. In the data set with KB cells (48 h, read-out: IC50 KB 48 h), the half-inhibitory concentration (IC50) was found to be 4.9 ng/mL (≈ 6.07 nM). For the same compound, in the data set with KB cells (72 h, read-out: IC50 KB 72 h), the IC50 came to 1.3 ng/mL (≈ 1.61 nM). The half-maximal inhibitory concentration (IC50) with 4T1 cells (48 h, read-out: IC50 4T1 48 h) was found to be 16.6 ng/mL (≈ 20.5 nM). In the data set on 4T1 cells (72 h, read-out: IC50 4T1 72 h), the 50% inhibitory concentration (IC50) stood at 5.9 ng/mL (≈ 7.3 nM).

Turning to `CCCCCCCCCCCCCCCC(=O)OCC(COC(=O)CCCCCCCCCCCCCCC)OC(=O)C(CCC(=O)O[C@@H](C(=O)O[C@H]1C[C@@]2(O)[C@@H](OC(=O)c3ccccc3)[C@@H]3[C@]4(OC(C)=O)CO[C@@H]4C[C@H](O)[C@@]3(C)C(=O)[C@H](O)C(=C1C)C2(C)C)[C@@H](NC(=O)OC(C)(C)C)c1ccccc1)OC(=O)C(C)(C)C` (some centres unmarked) [DTX-5C(Piv)-TG, Docetaxel-C5(Piv)-Triglyceride Prodrug], in the data set on pancreatic lipase, the “degradation into docetaxel-monoglyceride prodrugs in intestinal juice” value is “relatively slow degradation rate”. For the same compound, the “permeability coefficient Ka, increase compared with docetaxel solution” value in data set [2] (in vivo intestinal perfusion in rats) turned out to be 1.15 times. In addition, the “release of docetaxel parent drug in plasma” value in data set [3] was “hardly releases the docetaxel parent drug”. Also, the blood concentration result in the data set “in vivo” (oral, SD rats) is “lower than a detection limit”.

Consider “Docetaxel-C5(Et)-Triglyceride Prodrug [DTX-5C(Et)-TG]”, for which, in the data set on pancreatic lipase, the “degradation into docetaxel-monoglyceride prodrugs in intestinal juice” value is on record as “relatively slow degradation rate”. Also, the “release of docetaxel parent drug in plasma” value in data set [3] is listed as “release the drug slowly”. For the same compound, in “in vivo” (rat, in vivo, po), the “oral bioavailability improved versus docetaxel” value was 1.05-4.71 times. Moreover, the anti-tumor effect entry with 4T1 tumor was “certain anti-tumor effect”.
